Experimental data: patent US9878984B2, “Anti-cancer compounds” (NORTHWESTERN UNIVERSITY, priority 2008, dated 2018)
Entries after “also recorded” stand apart in the source; their conditions may differ.

How the values were obtained:
Format in all cases: cell-based, human
[1] = test system: topoisomerase II (topo II); assay: Topoisomerase II inhibition assay (topo II-DNA cleavable complexes in treated cells); settings: HeLa cells, [GI99%], 20 hr, normalized to mitoxantrone
Description: In Vitro Topoisomerase Inhibition: HeLa cells were plated at a density of 1.5 million in 35 mm wells and allowed to attach for 20 hr. They were then treated with each compound at the [GI99%] in 10 mL media for 20 hr. In vitro topoisomerase II inhibition was quantified using TopoGEN's Topoisomerase II In vivo Link Kit according to the protocol included with the kit and according to a previously published protocol [24] with slight modifications. In summary, DNA was isolated from sarkosyl lysed cells, layered on a cesium chloride gradient (total volume ˜7 mL), ultra-centrifuged, and then fractionated to 0.5 mL. The fractions were diluted 1:4 v/v in PBS and the fractions containing the genomic DNA were determined by measuring the absorbance at 260 nm for each fraction. The fractions were then loaded into a slot blotting apparatus and pulled through a nitrocellulose membrane by vacuum. The membrane was blocked in 5% w/v milk in 1×TBST (blotto) for 2 hr, incubated in 1:5,000 v/v topoisomerase II (topo II) primary antibody (TopoGEN) in blotto for 1 hr, washed, and incubated in 1:2,000 v/v HRP conjugated anti-rabbit secondary antibody (Jackson—West Grove, Pa.) in blotto for 45 min, washed and developed with SuperSignal West Pico Chemiluminescent Substrate (Pierce—Rockford, Ill.). The data were processed by dividing the intensity of the 2 or 3 most intense topo II immuno-reactive bands by the amount of DNA in the respective fractions. The band intensity was determined by scanning the developed films with a Kodak Image Station 440 CF and measuring the average pixel intensity of an area slightly larger than each band and subtracting the median background pixel intensity of the perimeter of the same area using Kodak MI software. Etoposide (TopoGEN) and mitoxantrone (Sigma—St. Louis, Mo.) are topo II inhibitors used as positive controls. […] Data were standardized to mitoxantrone in each of three independent experiments. […]

HeLa cells [2] = assay: MTS growth inhibition assay, HeLa cells; settings: concentration used in topo II assay
Description: Cell Culture: HeLa (cervical carcinoma), WI-38 (normal human […] fibroblasts), and MDA-MB-231 (breast carcinoma), cells were cultured in DMEM (Invitrogen—Carlsbad, Calif.) and PC-3M (metastatic prostate carcinoma) cells were cultured in RPMI-1640. Peripheral blood mononuclear cells (PBMCs) were voluntarily collected from a healthy laboratory worker by standard sterile phlebotomy techniques and isolated using Vacutainer CPT collection tubes (BD Biosciences—Bedford, Mass.). PBMCs were isolated freshly for each experiment. All DMEM and RPMI-1640 media was supplemented with 10% FBS (Atlanta Biologicals—Lawrenceville, Ga.) and 100 U/mL penicillin and streptomycin (Invitrogen). HUVEC (Human umbilical vein endothelial cells) were cultured in EGM-2 media with supplements provided in the manufacturers BulletKit (Lonza—Walersville, Md.). All cells were maintained at 37° C. and in a 5% CO2 atmosphere.
Growth Inhibition Assays: HeLa, MDA-MB-231, PC-3M, WI-38, and HUVEC cells were plated at 5,000 cells per well in 96 well plates and allowed to attach for 20 hr (8 hr for HeLa). The media was removed and 198 μL of fresh media was added to each well. […] Cell proliferation was measured at t=0 (time at start of treatment) and t=72 hr using MTS AQueous non-radioactive proliferation assay (Promega—Madison, Wis.). […] The absorbance at 490 nm in each well was read with a Spectramax 250 plate reader (Molecular Devices—Sunnyvale, Calif.). […] Data were fit to one site dose response curves in order to obtain specific growth inhibitory concentrations and the relative standard errors of the mean for these concentrations were calculated by the XLfit4 software. Statistical significance (p value) for the selectivity and all subsequent assays was determined with the two tailed homoscedastic Student's t-test. […]

HeLa cells [3] = assay: Transwell invasion assay; settings: [GI99%], matrigel, 20 hr
Description: Transwell Invasion Assay: HeLa cells were plated at 250,000 per 35 mm well and allowed to attach for 8 hr. The cells were washed with PBS and then treated for 4 hr with the [GI99%] of each compound (or 1% DMSO—vehicle control) in serum free media to decrease the number of invading cells in the beginning of the experiment due to a preliminary lack of drug exposure. The cells were then trypsinized and counted by trypan blue exclusion with a hemacytometer (Sigma—St. Louis, Mo.). Eight micron pore size control well inserts for 12 well plates (BD Biosciences) were coated with 100 μL 1 mg/mL matrigel (Sigma—St. Louis, Mo.) and allowed to solidify at room temperature for 1 hr. The excess matrigel was aspirated and the inserts were gently washed with PBS. The cells were seeded at a density of 300,000 per insert well in a volume of 500 μL serum free media containing a derivative or vehicle. The inserts were then placed in wells containing 700 μL serum free media with the respective compound. After 20 hr the cells on the top of the membranes were gently removed with a cotton swab, the membranes then were fixed in methanol for 1 min, stained in Gills No. 3 Hematoxylin (Sigma—St. Louis, Mo.) for 5 min, rinsed in tap water, and allowed to dry overnight. The membranes were excised, mounted on slides, and the cells were counted under the 40× objective of a bright field microscope. The data are expressed as the average total number of invading cells counted in 20 fields of each membrane, as standardized to the vehicle control, from six experiments.
Effect of derivatives on the malignant phenotype—invasion assay: If A1-A9 have differential targets, DNA binding specificity, or downstream effects they may differentially alter the malignant behavior of cells. Also, anti-cancer compounds can be efficacious against tumors in other ways besides inhibiting growth and inducing death of cancer cells; they can also alter the behavior of malignant cells. Therefore, the ability of A1-A9 and amonafide to alter the invasive behavior of cancer cells in a transwell (also known as Boyden chamber) invasion assay was evaluated, which determines the ability of cells to migrate through a proteinacious gel. This behavior is considered to be representative of cancer cell invasion through the basement membrane of the primary tumor environment. In this assay, treated cells are seeded on to the top of the matrigel-coated porous membrane, allowed to invade through the proteinacious gel onto the underside of the membrane, and then counted.

Chk2 = assay: DNA damage response assay (pThr68-Chk2 / total Chk2 western blot); settings: HeLa cells, [GI99%], 20 hr, normalized to mitoxantrone
Description: DNA Damage Response Assay: 250,000 HeLa cells were plated in 35 mm culture dishes and allowed to attach for 8 hr and were then treated with the [GI99%] of each compound for 20 hr (total media volume was […] with 1% DMSO). After treatment cells were lysed in 150 μL detergent buffer containing 1:100 v/v protease inhibitor cocktail (Sigma—St. Louis, Mo.). Lysates were run on denaturing 12% acrylamide gels and transferred to nitrocellulose membranes. The membranes were blocked in blotto, incubated in anti-pThr68-Chk2 antibody (Cell Signaling—Danvers, Mass.) at 1:500 v/v dilution in blotto overnight 4° C., washed, incubated in HRP conjugated anti-rabbit secondary antibody (Jackson) at 1:5,000 v/v dilution in blotto for 1 hr, and then developed. The membranes were then stripped with a reducing buffer, blocked in blotto, incubated in anti-Chk2 antibody (Biolegend—San Diego, Calif.) at 1:500 v/v dilution in blotto overnight at 4° C., washed, incubated in HRP conjugated anti-mouse secondary antibody (Jackson) at 1:5,000 v/v dilution in blotto for 1 hr, and then developed. Membranes were developed with PicoWest Developing Solution (Pierce) and exposed to film. The intensities of bands were quantified as described in the previous section. The data are expressed as the average ratio of pThr68-Chk2 to total Chk2 as normalized to the mitoxantrone control in each of three independent experiments.
Topoisomerase inhibition by most mechanisms should cause activation of DNA damage response pathways because of the production of single and double strand DNA breaks, as is the case with amonafide. […] Therefore, measuring the DNA damage response at a fixed cytotoxic dose ([GI99%]) will determine the extent that DNA damage contributes to the cytotoxicity of these compounds. […] Activation of Chk2 was determined by measuring the ratio of pThr68-Chk2 to total Chk2 in HeLa cells treated with the [GI99%].

HeLa cells [4] = assay: Perinucleolar compartment (PNC) prevalence reduction; settings: [GI50%] for 72 hr
Description: Perinucleolar Compartment (PNC) Reduction: HeLa cells (PNC prevalence ˜85%) were plated 5,000/well in glass bottom 96 well plates and allowed to attach for 8 hr. The cells were then treated with compounds at the respective [GI50%] for 72 hr and [GI99%] for 20 hr for each compound (total media volume was 200 μL/well with 1% DMSO). After treatment cells were immunofluorescently stained as previously described, but with a Texas Red labeled secondary antibody (Jackson) instead of a FITC labeled secondary antibody. PNC prevalence (% of non-apoptotic/non-mitotic cells with 1 or more PNCs) was determined by scoring >200 cells per well with fluorescent microscope (60× objective) and images were acquired with the digital camera and image acquisition software previously mentioned. Scale bar=10 μm. Data are expressed as the average PNC prevalence (% control) of three individual experiments.
The PNC is a unique structural marker that it is only found in malignantly transformed cancer cells, irrespective of tissue origin, and indicates cells that are capable of metastasis. […] Previous studies indicate that the PNC likely conveys a functional metastatic advantage to cancer cells. The PNC prevalence (% of cells with one or more PNC) in human breast cancer positively correlates with the progression of the disease and is always near 100% in distant metastases. […] The PNC prevalence reduction was determined for amonafide and A1-A9 at the respective [GI50%] and [GI99%] doses in HeLa cells, which have a high PNC prevalence of ˜85%.

Structure (SMILES)	stabilization of topo II-DNA cleavable complexes [1]	[IC99%] (HeLa cells [2]) [µM]	invasive behavior (% invading cells vs vehicle) (HeLa cells [3])	other results
COc1cc([C@@H]2c3cc4c(cc3[C@@H](O[C@@H]3O[C@@H]5CO[C@@H](C)O[C@H]5[C@H](O)[C@H]3O)[C@H]3COC(=O)[C@H]23)OCO4)cc(OC)c1O [etoposide]	caused formation of abundant drug stabilized topo II-DNA cleavable complexes	9.62		
O=C1c2c(O)ccc(O)c2C(=O)c2c(NCCNCCO)ccc(NCCNCCO)c21 [mitoxantrone]	caused formation of abundant drug stabilized topo II-DNA cleavable complexes	1.01		
CCN(CC)c1ccc2c3c(cccc13)C(=O)N(CCN(C)C)C2=O [A8, 6-diethylamino-2-[2-(dimethylamino)ethyl]-1H-benz[de]isoquinoline-1,3(2H)-dione]			did not significantly alter the invasive behavior of HeLa cells compared to the control	
CC[C@@]1(O)C(=O)OCc2c1cc1n(c2=O)Cc2cc3ccccc3nc2-1 [camptothecin]	did not cause the stabilization of topo II-DNA cleavable complexes	0.28		
CCCNc1ccc2c3c(cccc13)C(=O)N(CCN(C)C)C2=O [A2, 6-propylamino-2-[2-(dimethylamino)ethyl]-1H-benz[de]isoquinoline-1,3(2H)-dione]				DNA damage response (ratio of pThr68-Chk2 to total Chk2) (Chk2): evoked the strongest DNA damage response
C=CCNc1ccc2c3c(cccc13)C(=O)N(CCN(C)C)C2=O [A3, 6-allylamino-2-[2-(dimethylamino)ethyl]-1H-benz[de]isoquinoline-1,3(2H)-dione]			did not significantly alter the invasive behavior of HeLa cells compared to the control	
COCCNc1ccc2c3c(cccc13)C(=O)N(CCN(C)C)C2=O [A4, 6-methoxyethylamino-2-[2-(dimethylamino)ethyl]-1H-benz[de]isoquinoline-1,3(2H)-dione]			greatly decreases invasion compared to amonafide and control	PNC prevalence reduction at [GI50%] (HeLa cells [4]): able effectively reduce the PNC; also recorded: reduces PNC prevalence to the same extent as amonafide; also recorded: can significantly reduce PNC prevalence
